From article PMC9914411, “Potent Xanthine Oxidase Inhibitory Activity of Constituents of Agastache rugosa (Fisch. and C.A.Mey.) Kuntze” (Foods, 2023)
Read-outs that look alike come from different tables or passages of the source.

Key:
[1] = target: T1, bovine milk XO (Bos taurus, UniProt P80457); assay: XO kinetic assay (Lineweaver–Burk and Dixon plots, reversibility, preincubation); format: biochemical; conditions: for Xanthine Oxidase Kinetic Mode: Lineweaver–Burk and Dixon plots
T1 construct: The bovine milk XO activity was assayed; from tissue; host or cells: bovine milk
T1 sequence (P80457 whole entry): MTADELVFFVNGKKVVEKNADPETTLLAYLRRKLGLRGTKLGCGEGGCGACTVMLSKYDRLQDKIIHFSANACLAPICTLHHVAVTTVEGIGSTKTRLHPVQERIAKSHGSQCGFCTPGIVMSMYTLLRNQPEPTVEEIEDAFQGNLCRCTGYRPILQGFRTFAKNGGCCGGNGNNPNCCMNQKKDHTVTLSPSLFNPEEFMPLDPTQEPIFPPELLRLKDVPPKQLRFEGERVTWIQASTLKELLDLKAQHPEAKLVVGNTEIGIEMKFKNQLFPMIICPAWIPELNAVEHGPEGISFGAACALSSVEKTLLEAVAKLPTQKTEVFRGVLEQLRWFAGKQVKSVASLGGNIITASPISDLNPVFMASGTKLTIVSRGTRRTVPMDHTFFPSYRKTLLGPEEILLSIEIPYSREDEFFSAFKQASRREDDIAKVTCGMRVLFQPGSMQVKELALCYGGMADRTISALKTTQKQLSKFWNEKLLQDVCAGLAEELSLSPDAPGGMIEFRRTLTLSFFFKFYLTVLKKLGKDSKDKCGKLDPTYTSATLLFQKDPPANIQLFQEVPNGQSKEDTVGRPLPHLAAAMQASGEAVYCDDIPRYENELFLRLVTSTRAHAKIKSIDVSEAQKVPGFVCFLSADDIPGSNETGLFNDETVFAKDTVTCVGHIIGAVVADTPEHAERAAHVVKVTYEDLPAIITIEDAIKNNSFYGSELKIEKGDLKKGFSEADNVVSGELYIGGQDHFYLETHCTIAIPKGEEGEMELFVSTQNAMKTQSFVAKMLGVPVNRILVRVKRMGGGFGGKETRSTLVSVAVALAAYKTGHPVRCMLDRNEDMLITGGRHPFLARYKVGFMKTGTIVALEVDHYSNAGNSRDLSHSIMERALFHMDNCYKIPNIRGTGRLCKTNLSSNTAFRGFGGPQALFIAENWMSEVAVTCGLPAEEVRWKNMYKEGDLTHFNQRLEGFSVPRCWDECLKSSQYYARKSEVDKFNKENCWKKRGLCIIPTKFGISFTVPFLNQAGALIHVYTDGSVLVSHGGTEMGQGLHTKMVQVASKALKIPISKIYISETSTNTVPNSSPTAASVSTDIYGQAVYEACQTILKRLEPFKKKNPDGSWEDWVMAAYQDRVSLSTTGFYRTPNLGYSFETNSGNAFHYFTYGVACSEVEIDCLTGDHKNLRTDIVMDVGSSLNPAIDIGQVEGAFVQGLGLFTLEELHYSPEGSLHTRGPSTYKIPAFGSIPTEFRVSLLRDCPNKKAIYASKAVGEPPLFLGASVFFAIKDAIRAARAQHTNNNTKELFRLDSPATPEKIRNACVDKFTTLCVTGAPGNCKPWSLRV
Method: The bovine milk XO activity was assayed following the previously published procedures. […] First, 125 µL of 100 mM sodium pyrophosphate buffer (HCl, pH 7.5), 30 µL of 0.1 units XO enzyme, 5 µL of test samples, and 40 µL of the substrate (0.5 mM xanthine) were mixed. The reaction mixture (200 µL) in a 300 µL well plate was incubated at 37 °C and the UV absorbance at 295 nm was screened every 1 min for 15 min. The inhibition mechanism and constants (Km, Vmax, and Ki) of a binding site for the inhibitor to a free enzyme (KI) or an enzyme–substrate complex (KIS) were determined using the Lineweaver–Burk and Dixon plots. 1/V = Km/Vmax (1 + [I]/KI) 1/S + 1/Vmax(1) Slope = Km/KI Vmax [I] + Km/Vmax (2) Intercept = 1/KIS Vmax [I] + 1/Vmax (3) […]
The kinetic behaviors of the oxidation of xanthine catalyzed by XO at different concentrations of inhibitor were analyzed using both Lineweaver–Burk (Figure 3A) and Dixon plots (Figure 3B). […] The two possible inhibition mechanisms were investigated to reveal which one gives this kinetic profile. The mechanisms of mixed inhibition can be investigated through the changes of the substrate with inhibitor followed by measurements of the residual enzyme–substrate complex. Parameters of free enzyme (KI) and the enzyme–substrate complex (KIS) can be fitted to Equations (2) and (3). […] Further analysis of the progress of the inhibition was undertaken by preincubating the enzyme with 7, prior to the addition of the substrate.

[2] = target: T1, bovine milk XO; assay: XO inhibitory activity assay (uric acid formation from xanthine, absorbance at 295 nm); format: biochemical; conditions: for inhibition at 5 µM: read-out: XO inhibitory activity (%); for inhibition at 25 µM: read-out: Xanthine Oxidase Inhibition %
Method: The bovine milk XO activity was assayed following the previously published procedures. […] First, 125 µL of 100 mM sodium pyrophosphate buffer (HCl, pH 7.5), 30 µL of 0.1 units XO enzyme, 5 µL of test samples, and 40 µL of the substrate (0.5 mM xanthine) were mixed. […] The inhibition mechanism and constants (Km, Vmax, and Ki) of a binding site for the inhibitor to a free enzyme (KI) or an enzyme–substrate complex (KIS) were determined using the Lineweaver–Burk and Dixon plots.
The ARE was prepared using five different polar solvents (EtOH, 70% EtOH, 50% EtOH, 30% EtOH, and H2O) and tested for their XO inhibitory activity.

[3] = isolated compounds and positive controls, read-out: Xanthine Oxidase IC50
[4] = sample concentration 25 µM for the compound

| Xanthine Oxidase Kinetic Mode [1] | IC50 [2, 3] | inhibition at 25 µM [2, 4] | Compound | further results |
| --- | --- | --- | --- | --- |
| Competitive | 0.87 µM | 88.6 ± 1.2% | O=c1cc(-c2ccc(O)cc2)oc2cc(O)cc(O)c12 [Apigenin, reference compound] | inhibition at 5 µM ([2]; concentration of 5 μM): 67.2% |
| – | > 100 µM | 27.2 ± 1.5% | O=C(/C=C/c1ccc(O)c(O)c1)O[C@H](Cc1ccc(O)c(O)c1)C(=O)O [Compound 1, Rosmarinic acid] | – |
| – | 74.5 ± 0.9 µM | 40.7 ± 1.5% | COc1ccc(-c2cc(=O)c3c(O)cc(OC4OC(CO)C(O)C(O)C4OC(C)=O)cc3o2)cc1 [Compound 5, Acacetin 7-O-(2″-O-acetyl)-β-D-glucoside] | – |
| – | > 100 µM | 26.2 ± 0.9% | COc1ccc(-c2cc(=O)c3c(O)cc(OC4OC(COC(=O)CC(=O)O)C(O)C(O)C4OC(C)=O)cc3o2)cc1 [Compound 6, Acacetin 7-O-(2″-O-acetyl-6″-O-malonyl)-β-D-glucoside] | – |
| mixed type I | 0.58 ± 0.5 µM | 94.5 ± 1.4% | COc1ccc(-c2cc(=O)c3c(O)cc(O)cc3o2)cc1 [Compound 7, Acacetin] | Ki ([1]; Dixon plots, read-out: Xanthine Oxidase Ki): 0.61 µM; Reversibility of XO inhibition ([1]; activity versus enzyme concentration at 0-1.56 μM inhibitor): reversible inhibition; Inhibition as a function of preincubation time ([1]; enzyme preincubated with inhibitor at 0.2 μM): time-dependent inhibitory behavior; KIS (inhibitor binding to enzyme–substrate complex) ([1]; secondary plot of intercept, Equation (3)): 1.14 µM; Ki ([1]; secondary plot of slope, Equation (2), read-out: KI (inhibitor binding to free enzyme)): 0.57 µM; inhibition at 5 µM ([2]; concentration of 5 μM): 75.5% |

More lines, now with the values behind:

| Compound | Xanthine Oxidase Kinetic Mode [1] | IC50 [2, 3] | inhibition at 25 µM [2, 4] | further results |
| --- | --- | --- | --- | --- |
| Oc1ncnc2[nH]ncc12 [Allopurinol, reference compound] | Competitive | – | – | inhibition at 5 µM [2]: 51.9%; inhibition at 25 µM [2]: 82.5 ± 1.2% |
| O=C(/C=C/c1ccc(O)c2c1[C@H](C(=O)O[C@H](Cc1ccc(O)c(O)c1)C(=O)O)[C@@H](c1ccc(O)c(O)c1)O2)O[C@H](Cc1ccc(O)c(O)c1)C(=O)O [Compound 2, Salvianolic acid B] | – | – | 46.1 ± 1.2% | IC50 [2]: 30.7 ± 0.8 µM |
| COc1ccc(-c2cc(=O)c3c(O)cc(O[C@@H]4O[C@H](CO)[C@@H](O)[C@H](O)[C@H]4O)cc3o2)cc1 [Compound 3, Tilianin] | – | 26.4 ± 0.6 µM | 49.3 ± 1.5% | – |
| COc1ccc(-c2cc(=O)c3c(O)cc(OC4OC(COC(=O)CC(=O)O)C(O)C(O)C4O)cc3o2)cc1 [Compound 4, Acacetin 7-O-(6-O-malonyl)-β-D-glucoside] | – | 80.6 ± 0.7 µM | 36.2 ± 1.4% | – |
